Assay results reported in patent US20140271727A1, “METHOD OF USING AN ANTIDEPRESSANT FOR INCREASING IMMUNITY OF A SUBJECT AND TREATING CANCER” (NATIONAL YANG-MING UNIVERSITY, priority 2013, published 2014).

Key:
Format in all cases: in vivo, mouse
[1] = test system: CD4+ and CD8+ T cells; assay: Immunohistostaining of infiltrating CD4+ and CD8+ T cells in tumor tissues; details: concurrent and always vs never; day 42 post tumor inoculation; p<0.01 and p<0.001
Protocol: Immunohistochemistry (IHC) of CD4 and CD8 was also performed on day 42 post the tumor inoculation. Tumors were then removed, paraffin embedded, and 5-mm sectioning was performed. The sections were immunohistostained with antibodies against CD4 (BioLegend, USA) and CD8 (BioLegend, USA), respectively. The procedures of immunohistostaining were followed the protocols provided with the IHC kit (Millipore, USA). All images were digitally captured on a Scanscope CS system (Aperio, USA).

[2] = test system: BALB/c mice; assay: Spontaneous motor activity assay; details: continuous mirtazapine 10 mg/kg/d (drug and always); day 22 after tumor inoculation
Protocol: Second, all animal study protocols were approved by the Institutional Animal Care and Use Committee (IACAU) of National Yang Ming University. Mirtazapine (0.25 mg) was dissolved in 0.05 ml of 0.9% NaCl plus 0.5% absolute ethanol for each mouse (i.e. 10 mg/kg.) Male BALB/c mice (initial weights 25±2 g, and purchased from the National Laboratory Animal Center, Taipei, Taiwan) were housed in the cages, five mice per cage, under a 12:12 h reverse light/dark cycle with lights off at 6 pm Animals were handled and weighed daily for a week to reduce any non-specific stress responses. […] “Wild-type” means the mice are monitored without tumor inoculation and mirtazapine treatment, drug means the mice are monitored with continuous mirtazapine treatment but without tumor inoculation, never means the mice are monitored with tumor inoculation and daily 0.05 ml of 0.9% NaCl plus 0.5% absolute ethanol treatment but without mirtazapine treatment, always means the mice are monitored with mirtazapine treatment initiated 2 weeks before the tumor inoculation, and concurrent means the mice are monitored with tumor inoculation and mirtazapine treatment on the same day, and after means the mice are monitored with mirtazapine treatment initiated 2 weeks post the tumor inoculation. […]

[3] = test system: CD4+ and CD8+ T cells; assay: Lymph node CD4+ and CD8+ T lymphocyte subsets by FACS; details: flow cytometry
Protocol: Preferably, the results as shown in FIG. 4C and FIG. 4D are performed by a flow cytometer, and a target cell population will be screened out by utilizing at least one flow cytometer to identify different surface markers of different cells. Flow cytometry allows for single cell analysis at speeds far surpassing any other single cell analysis technology in the art. This enables a statistically significant number of cells to be analyzed faster than using other alternative techniques. In a preferred embodiment, a flow cytometer is used with any suitable sample preparation robot or liquid handler that is known in the art. Furthermore, a single laser flow cytometer is used in an embodiment for the analyzing step. In another embodiment, a multi-laser flow cytometer is used for the analyzing step and the present invention is not limited thereto.
(§1) Second, all animal study protocols were approved by the Institutional Animal Care and Use Committee (IACAU) of National Yang Ming University. Mirtazapine (0.25 mg) was dissolved in 0.05 ml of 0.9% NaCl plus 0.5% absolute ethanol for each mouse (i.e. 10 mg/kg.) Male BALB/c mice (initial weights 25±2 g, and purchased from the National Laboratory Animal Center, Taipei, Taiwan) were housed in the cages, five mice per cage, under a 12:12 h reverse light/dark cycle with lights off at 6 pm Animals were handled and weighed daily for a week to reduce any non-specific stress responses. And then, please refer to FIG. 1A and FIG. 1B, FIG. 1A and FIG. 1B are diagrams showing the experimental designs according to an embodiment of the present invention. […] “Wild-type” means the mice are monitored without tumor inoculation and mirtazapine treatment, drug means the mice are monitored with continuous mirtazapine treatment but without tumor inoculation, never means the mice are monitored with tumor inoculation and daily 0.05 ml of 0.9% NaCl plus 0.5% absolute ethanol treatment but without mirtazapine treatment, always means the mice are monitored with mirtazapine treatment initiated 2 weeks before the tumor inoculation, and concurrent means the mice are monitored with tumor inoculation and mirtazapine treatment on the same day, and after means the mice are monitored with mirtazapine treatment initiated 2 weeks post the tumor inoculation. That is, the mice were assayed on day 22 for behaviors, and then sacrificed for the measurement of lymphocyte subsets and performed with ex vivo autoradiography.
As to the quantification of interleukin-12 (hereafter called “IL-12”), the whole blood withdrawn from the pouch of each mouse was centrifuged at 600×g for 20 min, and serum was collected. The serum IL-12p70 (sIL-12) level was determined using an ELISA kit (R&D Systems, Taiwan). Identification for the lymph node cluster of differentiated CD4+ T helper and CD8+T-cytotoxic lymphocyte subsets was assayed. Briefly, the lymphocytes isolated from the lymph nodes of groins of mice were stained with phycoerythrin-conjugated antimouse CD4 (CD4-PE) monoclonal antibody and peridininchlorophyll-protein-complex-conjugated anti-mouse CD8 (CD8-PerCP) monoclonal antibody (BioLegend, USA). Lymphocyte subsets were identified by FACS analysis using a FACS Calibur flow cytometer. Immunohistochemistry (IHC) of CD4 and CD8 was also performed on day 42 post the tumor inoculation. Tumors were then removed, paraffin embedded, and […] sectioning was performed. The sections were immunohistostained with antibodies against CD4 (BioLegend, USA) and CD8 (BioLegend, USA), respectively. The procedures of immunohistostaining were followed the protocols provided with the IHC kit (Millipore, USA). All images were digitally captured on a Scanscope CS system (Aperio, USA).

[4] = test system: CT26/luc tumor; assay: CT26/luc tumor growth in BALB/c mice (caliper tumor volume, BLI); set-up: mean tumor growth time / mean tumor growth delay time: unit not given here; details: for mean tumor growth delay time: growth time of treated group minus that of never; for mean tumor growth time: time at which tumor volume reaches 400 mm; for mean tumor growth inhibition rate: growth rate of treated group/growth rate of never
Protocol: The details in preparing the materials and processing relative analyses will be illustrated as follows. First, CT-26 murine colon carcinoma cells (obtained from Taiwan Liposome Company, Taipei, Taiwan) were transfected with the luciferase gene (hereafter called “CT26/luc”). The CT26/luc tumor cells were cultured in RPMI 1640 medium (Invitrogen) supplemented with 10% fetal bovine serum (Hyclone), 100 units/ml of penicillin, and […] streptomycin (Gibco-BRL) at 37° C. in a 5% CO2 atmosphere.
as §1
Accordingly, the CT26/luc cells (2×10^6 cells/200 μL) suspended in the serum-free RPMI medium were transplanted subcutaneously into the dorsal region of the right thighs of the BALB/c mice. 10 mg/kg/d mirtazapine dissolved in 0.9% sodium chloride and 0.5% ethanol was administered to mice by gavage daily till mice expired or terminated on day 67 post tumor inoculation. Survival rate and interval were assayed for never, always, concurrent, and after (n=10 per group).
As to the tumor growth, it was monitored using a digital caliper twice a week. The tumor volume was calculated according the following formula: […]
0.5236×length×width×thickness
Bioluminescence imaging (hereafter called “BLI”) used for tumor size tracking was performed with an IVIS50 animal imaging system (Xenogen Corp., USA).

[5] = group Always, CT26/luc tumor-bearing
[6] = group Concurrent, CT26/luc tumor-bearing
[7] = group Drug: continuous mirtazapine 10 mg/kg/d, no tumor
[8] = group after, CT26/luc tumor-bearing

CN1CCN2c3ncccc3Cc3ccccc3C2C1 (centres unmarked) [mirtazapine]
infiltrating CD4+ and CD8+ cells/0.1 mm^2 tumor tissues [1]: significantly increased numbers
spontaneous motor activity [2]: no effect
CD4+ T cells (10^4 events) [3, 5]: 29.75 ± 1.96%
CD8+ T cells (10^4 events) [3, 5]: 32.77 ± 7.43%
CD4+ T cells (10^4 events) [3, 6]: 25.77 ± 0.73%
CD8+ T cells (10^4 events) [3, 6]: 22.41 ± 5.03%
CD4+ T cells (10^4 events) [3, 7]: 30.97 ± 1.40%
CD8+ T cells (10^4 events) [3, 7]: 30.95 ± 6.57%
CD4+ T cells (10^4 events) [3, 8]: 22.58 ± 1.15%
CD8+ T cells (10^4 events) [3, 8]: 15.86 ± 4.78%
tumor growth inhibition ([4]; always, concurrent and after vs never, day 22-47 after tumor inoculation, p<0.01): significant tumor growth inhibition
mean tumor growth delay time ([4]; group Always (2 weeks before inoculation)): 18.8
mean tumor growth time ([4]; group Always: mirtazapine 10 mg/kg/d by gavage initiated 2 weeks before tumor inoculation): 41.3
mean tumor growth inhibition rate ([4]; group Always): 1.8
mean tumor growth delay time ([4]; group Concurrent (same day as inoculation)): 8.2
mean tumor growth time ([4]; group Concurrent: mirtazapine 10 mg/kg/d from the day of tumor inoculation): 30.9
mean tumor growth inhibition rate ([4]; group Concurrent): 1.4
mean tumor growth delay time ([4]; group after (2 weeks post inoculation)): 2.8
mean tumor growth time ([4]; group after: mirtazapine 10 mg/kg/d initiated 2 weeks post tumor inoculation): 25.4
mean tumor growth inhibition rate ([4]; group after): 1.1
